Entries after “also recorded” stand apart in the source; their conditions may differ. Counter-ions that a name gives are not always drawn.
Tests used:
[1] = system: postsynaptic α-adrenoreceptor; test: Antagonism of clonidine postsynaptic effects (blood pressure increases) after oral dosing, pithed rat; type: in vivo
[2] = system: presynaptic α-adrenoreceptor; test: Presynaptic α-adrenoreceptor antagonism in the pithed rat: vas deferens, oral activity; type: in vivo; conditions: 1.0 and 5.0 mg/kg
From the text: Thirty minutes after oral administration, the rats were pithed so as to allow electrically-induced contractions of the vas deferens to be studied in situ.

[3] = system: presynaptic α-adrenoreceptor; test: Presynaptic α-adrenoreceptor antagonism in the pithed rat: vas deferens, intravenous activity; type: in vivo; conditions: for i.v. dose of antagonist causing 50% reversal of clonidine block on vas deferens: pithed rat, clonidine 100 μg/kg i.v., cumulative i.v. dosing, mean of minimum 4 rats
Procedure: This test model extends the evaluation of presynaptic α-adrenoreceptor antagonism versus clonidine on the rat vas deferens to the in vivo situation. Blood pressure and stimulation induced contractions of the vas deferens were monitored in pithed rats using the method of Brown, J., Doxey, J. C., Handley, S. and Virdee, N., Recent Advances in the Pharmacology of Adrenoceptors, Elsevier North Holland, 1978. Clonidine (100 μg/kg, i.v.) causes a prolonged pressor response and a prolonged inhibition of vas deferens contractions. The test drugs were injected intravenously in a cumulative dosing schedule and their abilities to reverse the inhibition of hypogastric nerve stimulation reflected their presynaptic antagonism.

[4] = system: presynaptic α-adrenoreceptor; test: Reversal of guanabenz block of the anococcygeus muscle of the pithed rat, intravenous; type: in vivo; conditions: for Intravenous dose of antagonist causing 50% reversal of guanabenz block of anococcygeus muscle: pithed rat, guanabenz acetate 30 μg/kg i.v.
[5] = system: postsynaptic α-adrenoreceptors (rat anococcygeus muscle); test: Postsynaptic α-adrenoreceptor antagonism vs noradrenaline contractions in isolated rat anococcygeus muscle; type: cell-based; conditions: mean of minimum 5 experiments, "<" means inactive at a concentration which would have given the pA indicated
From the text: (§1) This in vitro model is particularly useful as an initial screen for studying presynaptic activity in isolation since the physiological nature of the vas deferens tissue is such that the post synaptic receptors located therein are particularly inaccessible to exogenous agents. In consequence an alternative tissue, the rat anococcygeus muscle is used to establish postsynaptic α-adrenoreceptor activity. Antagonism of noradrenaline contractions is used to determine pA2 values at postsynaptic α-adrenoreceptors. The ratio of presynaptic α-adrenoreceptor antagonism (versus clonidine on the rat vas deferens) to postsynaptic α-adrenoreceptor antagonism (versus noradrenaline contractions on the rat anococcygeus muscle) is used to assess adrenoreceptor selectivity.

[6] = target: T1, presynaptic α2-adrenoreceptor (rat vas deferens) (Rattus norvegicus, UniProt P22909); test: Presynaptic α-adrenoreceptor antagonism vs clonidine in isolated rat vas deferens (0.1 Hz stimulation); type: cell-based
T1 construct: Pre- and postsynaptic α-adrenoreceptor antagonism in isolated tissue experiments; from tissue; host or cells: isolated rat vas deferens
T1 sequence (P22909 1-465): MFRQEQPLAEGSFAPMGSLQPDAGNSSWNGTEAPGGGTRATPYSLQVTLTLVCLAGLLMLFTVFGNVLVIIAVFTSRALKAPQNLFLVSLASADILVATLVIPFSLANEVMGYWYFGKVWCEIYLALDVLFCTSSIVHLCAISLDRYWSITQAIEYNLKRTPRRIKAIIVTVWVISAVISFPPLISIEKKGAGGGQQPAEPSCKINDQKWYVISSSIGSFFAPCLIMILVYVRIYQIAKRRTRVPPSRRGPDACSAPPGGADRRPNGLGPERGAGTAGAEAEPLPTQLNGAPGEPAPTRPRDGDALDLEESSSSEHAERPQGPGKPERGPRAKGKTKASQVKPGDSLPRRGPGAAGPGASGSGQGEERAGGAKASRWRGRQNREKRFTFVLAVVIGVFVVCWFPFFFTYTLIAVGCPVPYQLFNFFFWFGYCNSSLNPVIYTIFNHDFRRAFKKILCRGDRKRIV
From the text: as §1

DOCA hypertensive rats = test: Effect on blood pressure and heart rate of conscious DOCA hypertensive rats; type: in vivo, rat
From the text: Results are given in Table 5 in terms of peak percentage fall in B.P.

[7] = system: clonidine-induced hypothermia; test: Antagonism of clonidine-induced hypothermia in mice; type: in vivo
[8] = system: postsynaptic α-adrenoreceptor; test: Pressor responses in the pithed rat on intravenous administration; type: in vivo; conditions: 1-10 mg/kg, i.v.
[9] = system: presynaptic α-adrenoreceptor; test: Reversal of clonidine inhibition of the anococcygeus muscle of the pithed rat, intravenous; type: in vivo; conditions: 0.3-1.0 mg/kg, i.v.; 1 Hz stimulation
From the text: In contrast to the rat vas deferens, both the pre- and postsynaptic adrenoreceptors of the rat anococcygeus muscle are readily accessible to exogenously applied agents and therefore this test can be used to distinguish selective presynaptic α-adrenoreceptor antagonists from non-selective agents. Contractions of the rat anococcygeus muscle induced by low frequency (1 Hz) electrical stimulation of spinal sympathetic outflow are inhibited by low doses of clonidine. Only selective presynaptic α-adrenoreceptor antagonists will reverse the inhibitory effects of clonidine.

For `c1ccc2c(c1)OCC(C1=NCCN1)O2` (stereo not drawn) [Compound A, 2-[2-(1,4-Benzodioxanyl)]-2-imidazoline hydrochloride], the “inhibition of the clonidine postsynaptic effects (blood pressure increases)” value ([1]; 1.0 mg/kg p.o.) was “No inhibition”, the “inhibition of the clonidine postsynaptic effects (blood pressure increases)” value ([1]; 5.0 mg/kg p.o.) was “some antagonism was observed” and the “antagonism of the presynaptic action of clonidine (in words)” value [2] was “dose-dependent competitive antagonism”. The “presynaptic α-adrenoreceptor antagonist potency, rank among compounds studied” value ([3]; pithed rat vas deferens, i.v., Table 2) was “clearly the most potent presynaptic α-adrenoreceptor antagonist of those studied”, the “i.v. dose of antagonist causing 50% reversal of clonidine block on vas deferens” value [3] was 0.009 mg/kg and the “presynaptic α-adrenoreceptor antagonist potency, rank among compounds studied” value ([4]; pithed rat anococcygeus, i.v.) was “the most potent presynaptic α-adrenoreceptor antagonist studied”. For the same molecule, the “Intravenous dose of antagonist causing 50% reversal of guanabenz block of anococcygeus muscle” value [4] was 0.021 mg/kg, the “Postsynaptic antagonism pA2 vs Noradrenaline (anococcygeus)” value [5] was 6.2 and the “presynaptic α-adrenoreceptor antagonist potency, rank among compounds studied” value ([6]; Table 1) was “the most potent presynaptic α-adrenoreceptor antagonist”. For the same molecule, the “peak percentage fall in B.P.” value (DOCA hypertensive rats; 1.0 mg/kg, oral) was -4%, the “blood pressure effect (in words)” value (DOCA hypertensive rats; 1.0 mg/kg, oral, hydrochloride) was “did not significantly alter blood pressure; also recorded: does not possess antihypertensive activity” and the “peak percentage fall in B.P.” value (DOCA hypertensive rats; 5.0 mg/kg, oral) was -28%. The “peak percentage fall in B.P.” value (DOCA hypertensive rats; 20.0 mg/kg, oral) was -39%, the “mean arterial blood pressure effect (in words)” value (DOCA hypertensive rats; 5.0 and 20.0 mg/kg, oral, hydrochloride) was “dose-related falls in mean arterial blood pressure” and the “heart rate effect (in words)” value (DOCA hypertensive rats; three doses (1.0, 5.0 and 20.0 mg/kg), oral) was “No significant effect on heart rate”. For the same molecule, the “reversal of clonidine-induced hypothermia (in words)” value ([7]; 0.1-1.0 mg/kg, i.v.) was “statistically significant dose-related reversal”.
With `CC1(C2=NCCN2)Oc2ccccc2O1` [Compound B, 2-[2-(2-methyl-1,3-benzodioxyl)]-2-imidazoline hydrochloride] the “maximum reversal of the inhibitory effects of clonidine on hypogastric nerve stimulation” value ([3]; cumulative i.v. dose 14.4 mg/kg) was 66%, the “i.v. dose of antagonist causing 50% reversal of clonidine block on vas deferens” value [3] was 5.60 mg/kg and the “pressor responses / postsynaptic α-adrenoreceptor agonist activity (in words)” value [8] was “pressor responses in the pithed rat were seen”. For the same molecule, the “Postsynaptic antagonism pA2 vs Noradrenaline (anococcygeus)” value [5] was under 4.4, the Kb ([6]; isolated rat vas deferens, 0.1 Hz, mean of minimum 5 experiments, "<" means inactive at a concentration which would have given the pA indicated, read-out: Presynaptic antagonism pA2 vs Clonidine (vas deferens) (converted)) was 631 nM and the Pre/postsynaptic ratio ([6]; presynaptic antagonism (vs clonidine, vas deferens) to postsynaptic antagonism (vs noradrenaline, anococcygeus)) was over 67. The “blood pressure effect (in words)” value (DOCA hypertensive rats; 1.0 mg/kg, oral) was “significant antihypertensive effect”, the “peak percentage fall in B.P.” value (DOCA hypertensive rats; 1.0 mg/kg, oral) was -15% and the “peak percentage fall in B.P.” value (DOCA hypertensive rats; 5.0 mg/kg, oral) was -25%. The “peak percentage fall in B.P.” value (DOCA hypertensive rats; 20.0 mg/kg, oral) was -14%, the “maximum hypotensive effect following 20 mg/kg (in words)” value (DOCA hypertensive rats; 20 mg/kg, p.o. versus 5 mg/kg, p.o.) was “less than that produced by 5 mg/kg, p.o. compound B” and the “dose-relation of the falls in blood pressure (in words)” value (DOCA hypertensive rats; 1-20 mg/kg, p.o.) was “not dose-related”. The “effect on clonidine-induced hypothermia (in words)” value ([7]; 30 mg/kg i.v.) was “potentiated the clonidine-induced hypothermia”, the “reversal of clonidine-induced hypothermia (in words)” value ([7]; 1-10 mg/kg, i.v.) was “partial reversal” and the “reversal of clonidine-induced hypothermia compared with vehicle (significance, in words)” value ([7]; 1-10 mg/kg, i.v.) was “not significantly different from animals treated with vehicle”.
In the case of `CN1CCN2c3ccccc3Cc3ccccc3C2C1` (stereo not drawn) [Mianserin HCl], the “i.v. dose of antagonist causing 50% reversal of clonidine block on vas deferens” value [3] is reported as over 4.4 mg/kg.
`CN1CCN2c3ccccc3Cc3ccccc3C2C1` (stereo not drawn) [Mianserin] was tested, and the “maximum reversal of the inhibitory effects of clonidine on hypogastric nerve stimulation” value ([3]; cumulative i.v. dose 4.4 mg/kg) was 36%.
In the case of `Cc1ccc(N(CC2=NCCN2)c2cccc(O)c2)cc1` [Phentolamine mesylate], the “i.v. dose of antagonist causing 50% reversal of clonidine block on vas deferens” value [3] is reported as 0.12 mg/kg and the “Intravenous dose of antagonist causing 50% reversal of guanabenz block of anococcygeus muscle” value [4] is reported as over 1.4 mg/kg.
`Cc1ccc(N(CC2=NCCN2)c2cccc(O)c2)cc1` [Phentolamine] was tested, and the “presynaptic α-adrenoreceptor antagonist activity (in words)” value ([4]; cumulative i.v. dose of 1.4 mg/kg) was “devoid of presynaptic α-adrenoreceptor antagonist activity”, the “blood pressure effect (in words)” value (DOCA hypertensive rats; 1.0 mg/kg, oral) was “reduced blood pressure” and the “peak percentage fall in B.P.” value (DOCA hypertensive rats; 1.0 mg/kg, oral) was -16%. The “peak percentage fall in B.P.” value (DOCA hypertensive rats; 5.0 mg/kg, oral) was -24%, the “heart rate effect (in words)” value (DOCA hypertensive rats; 20 mg/kg, oral) was “reflexly elevated” and the “peak percentage fall in B.P.” value (DOCA hypertensive rats; 20.0 mg/kg, oral) was -41%. The “heart rate effect (in words)” value (DOCA hypertensive rats; two smaller doses (1.0 and 5.0 mg/kg), oral) was “not greatly affected”.
`COC(=O)[C@@H]1[C@H]2C[C@H]3c4[nH]c5ccccc5c4CCN3C[C@@H]2CC[C@@H]1O` [Yohimbine HCl] was tested, and the “i.v. dose of antagonist causing 50% reversal of clonidine block on vas deferens” value [3] was 0.86 mg/kg and the “Intravenous dose of antagonist causing 50% reversal of guanabenz block of anococcygeus muscle” value [4] was 0.280 mg/kg.
With `COC(=O)[C@@H]1[C@H]2C[C@H]3c4[nH]c5ccccc5c4CCN3C[C@@H]2CC[C@@H]1O` [Yohimbine] the “reversal of the inhibitory action of clonidine on the anococcygeus muscle” value [9] was “fully reversed”.

From patent US4818764A, “Imidazoline derivative and method of treating depression therewith” (priority 1980, dated 1989)
